# Measured values published in patent US20110119780A1, “SCREENING FOR NON-GENOTOXIC CARCINOGENS” (priority 2008, published 2011).
# Where “and” joins values, the source holds several entries; their conditions need not be identical. Identical values can stand only once. Like-named read-outs stand apart in the source and are kept apart here.
# Columns and labels:
# [1] = set-up: species or system mice; conditions: mouse, in vivo, po, 50 mg/kg
# Description: Animals were treated either with 4 daily doses of Wy-14,643/corn oil (50 mg/kg, orally) or with corn oil alone, as shown in Table 2. Approximately 24 hr after the last dose, all mice were sacrificed using an increasing concentration of CO2. Liver and plasma were collected for analysis. Following treatment with Wy-14,643 or the vehicle (corn oil), the mice were sacrificed and their livers removed and weighed. […] The concentration of inducing agent was of supplied chemical, without any correction for purity. The volume administered was 10 ml/kg bodyweight. […] On the day of termination the mice were weighed, the body weights recorded, and then transferred to a suitable room for post mortem. Approximately 24 hrs after treatment, the mice will be killed by exposure to a rising concentration of CO2.
# [2] = type: in vivo, mice; conditions: for Diluted Chol / Diluted HDL / Diluted LDL / Diluted Trig: dilution factor 2; for Diluted Chol / Diluted HDL / Diluted LDL / Diluted Trig / Normalised Chol / Normalised HDL / Normalised LDL / Normalised Trig: individual mice
# Description: The plasma was processed by taking blood from the terminated mice by cardiac puncture into lithium/heparin-coated tubes. Following removal into suitable tubes for plasma preparation, terminal blood samples taken by cardiac puncture were mixed on a roller for 10 min then cooled on ice. Red blood cells were removed by centrifugation (2,000-3,000 rpm for 10 min at 8-10° C.). Immediately after centrifugation, the supernatant (plasma) was collected in eppendorfs and kept on wet ice. Plasma was transferred into cryovials for clinical chemistry and immediately flash frozen in liquid nitrogen, then stored at approximately −70° C. […] In order to investigate potential hepatotoxicity caused by Wy-14,643 treatment, markers of liver damage, alanine aminotransferase (ALT), aspartate aminotransferase (AST) and alkaline phosphatase (ALP) were measured in WT and hPPARα mice (Tables 6-8). Liver related plasma biomarkers, albumin (ALB), conjugated and total bilirubin (BIL-D and BIL-T respectively), cholesterol, high density lipoprotein (HDL-C), low density lipoprotein (LDL-C) and triglycerides were also investigated in all available plasma samples in order to characterise basal hepatic function in hPPARα mice relative to WT mice (Tables 9-15).
# Cyp4a protein = conditions: WT mice; liver microsomes; 50 mg/kg orally x4 daily
# Description: Henderson, University of Dundee, UK). The standard used was APFO-induced WT rat liver microsomes (1 μg protein loaded).
# To investigate the downstream effects of PPARα activation, the expression of Cyp4a proteins was evaluated by immunoblot analysis in liver microsomes from WT and hPPARα mice.
# Individual liver microsomal samples were analysed by immunoblotting for Cyp4a. Protein concentration was measured using the CXR microlowry method. Quantification of Cyp4a protein in mouse liver microsomes was carried out. A murine his-tagged Cyp4a recombinant standard was loaded onto the NU-PAGE gel.
# [3] = tested on: cyanide-insensitive palmitoyl-CoA oxidation; assay: Cyanide-insensitive palmitoyl CoA oxidation in mouse liver (crude mitochondria); type: in vivo; conditions: for PCO oxidation, NAD + red.: crude mitochondrial fraction of liver, 50 mg/kg orally x4 daily, individual mice, 50 mg/kg
# Description: Measurements of cyanide-insensitive pCoA oxidation in crude mitochondrial fractions were performed as described.
# Cyp4a activity = conditions: mouse, in vivo
# Description: Lauric acid hydroxylation activity measurements in liver microsomes were performed.
# Liver microsomes from each available animal were evaluated for Cyp4a activity by measuring lauric acid hydroxylation (FIG. 19, Tables 17-18).
# [4] = WT mice, plasma, 50 mg/kg orally x4 daily, 50 mg/kg
# [5] = WT mice, plasma, 50 mg/kg orally x4 daily, n = 3
# [6] = WT mice, plasma, % mean own control
# [7] = hPPARα mice, plasma, 50 mg/kg orally x4 daily, 50 mg/kg
smiles,measurement,setting,value
"Cc1cccc(Nc2cc(Cl)nc(SCC(=O)O)n2)c1C [Wy-14,643]","Body weights, % Mean",[1],98%
same,"Body weights, Mean",[1],26 g
same,"Liver body weight ratios, % Mean",[1],139%
same,"Liver body weight ratios, Mean",[1],6.46%
same,"Liver weights, % Mean",[1],135%
same,"Liver weights, Mean",[1],1.69 g
same,"triglyceride concentrations, decrease compared to corresponding control mice","[2]; WT mice, p<0.05",~50%
same,Diluted Chol,[2]; [4],1.25 mmol/L and 1.02 mmol/L and 1.40 mmol/L
same,Diluted HDL,[2]; [4],1.28 mmol/L and 1.02 mmol/L and 1.36 mmol/L
same,Diluted LDL,[2]; [4],0.12 mmol/L and 0.08 mmol/L and 0.14 mmol/L
same,Diluted Trig,[2]; [4],0.27 mmol/L and 0.21 mmol/L and 0.31 mmol/L
same,Normalised Chol,[2]; [4],2.50 mmol/L and 2.04 mmol/L and 2.80 mmol/L
same,Normalised HDL,[2]; [4],2.56 mmol/L and 2.04 mmol/L and 2.72 mmol/L
same,Normalised LDL,[2]; [4],0.24 mmol/L and 0.16 mmol/L and 0.28 mmol/L
same,Normalised Trig,[2]; [4],0.54 mmol/L and 0.42 mmol/L and 0.62 mmol/L
same,"Cholesterol, Mean",[2]; [5],2.45 mmol/L
same,"HDL, Mean",[2]; [5],2.44 mmol/L
same,"LDL, Mean",[2]; [5],0.23 mmol/L
same,"Triglycerides, Mean",[2]; [5],0.53 mmol/L
same,"Cholesterol, % Mean",[2]; [6],97%
same,"HDL, % Mean",[2]; [6],103%
same,"LDL, % Mean",[2]; [6],89%
same,"Triglycerides, % Mean",[2]; [6],56%
same,Diluted Chol,[2]; [7],1.18 mmol/L and 1.47 mmol/L
same,Diluted HDL,[2]; [7],1.14 mmol/L and 1.46 mmol/L
same,Diluted LDL,[2]; [7],0.07 mmol/L and 0.11 mmol/L
same,Diluted Trig,[2]; [7],0.64 mmol/L and 0.60 mmol/L
same,Normalised Chol,[2]; [7],2.36 mmol/L and 2.94 mmol/L
same,Normalised HDL,[2]; [7],2.28 mmol/L and 2.92 mmol/L
same,Normalised LDL,[2]; [7],0.14 mmol/L and 0.22 mmol/L
same,Normalised Trig,[2]; [7],1.28 mmol/L and 1.20 mmol/L
same,"ALP, % Mean","[2]; mouse, in vivo",129%
same,"ALT, % Mean","[2]; mouse, in vivo",117%
same,"AST, % Mean","[2]; mouse, in vivo",121%
same,"Albumin, % Mean","[2]; mouse, in vivo",101%
same,"BIL-D, % Mean","[2]; mouse, in vivo",22%
same,"BIL-T, % Mean","[2]; mouse, in vivo",69%
same,"ALP, Mean","[2]; mouse, in vivo, po, 50 mg/kg",129 U/L
same,"ALT, AST and ALP concentration (plasma markers of hepatotoxicity)","[2]; mouse, in vivo, po, 50 mg/kg",unaltered
same,"ALT, Mean","[2]; mouse, in vivo, po, 50 mg/kg",34 U/L
same,"AST, Mean","[2]; mouse, in vivo, po, 50 mg/kg",119 U/L
same,"Albumin, Mean","[2]; mouse, in vivo, po, 50 mg/kg",38 g/L
same,"BIL-D, Mean","[2]; mouse, in vivo, po, 50 mg/kg",0.08 µmol/L
same,"BIL-T, Mean","[2]; mouse, in vivo, po, 50 mg/kg",17 µmol/L
same,Plasma albumin levels,"[2]; mouse, in vivo, po, 50 mg/kg",unaltered
same,"triglyceride concentrations, decrease compared to corresponding control mice",[2]; the two hPPARα mice,25% and 29%
same,"Cyp4a protein expression (immunoblot, 50 kD band)",Cyp4a protein,marked induction
same,"PCO oxidation, % MEAN","[3]; WT mice, % mean own control",265%
same,"PCO oxidation, NAD + red.",[3]; WT mice,79 nmol/min/mg and 73 nmol/min/mg and 82 nmol/min/mg
same,"PCO oxidation, NAD + red., MEAN","[3]; WT mice, n = 3",78 nmol/min/mg
same,"cyanide-insensitive pCoA oxidation, induction relative to vehicle controls","[3]; both mouse lines (WT, hPPARα), crude mitochondrial fractions",approximately 3 fold
same,"PCO oxidation, NAD + red.",[3]; hPPARα mice,41 nmol/min/mg and 53 nmol/min/mg
same,"Formation of 11-OH lauric acid, % MEAN",Cyp4a activity,308%
same,"Formation of 11-OH lauric acid, MEAN",Cyp4a activity,3.0 nmol/min/mg
same,"Formation of 12-OH lauric acid, % MEAN",Cyp4a activity,1669%
same,"Formation of 12-OH lauric acid, MEAN",Cyp4a activity,9.2 nmol/min/mg
